Earlier results on two compounds are cited in patent publication US7166295B1, “Methods of treatment and diagnostic visualization, particularly in cancer” (priority 1995, dated 2007).

For this data set the following is noted: incorporated in liposomes, injected intraperitoneally into mice; compared with injection of the respective free drug.

Take `CCCCCCCCCCCCCCCC(=O)OCC(COP(=O)(O)OCC1OC(n2cc(C)c(=O)[nH]c2=O)CC1N=[N+]=[N-])OC(=O)CCCCCCCCCCCCCCC` (centres unmarked) [DPP-AZT, Dipalmitoyl-phosphatidyl-3′-Azido-3′-deoxythymidine]: the “concentration of drug in the plasma, spleen and lymphoid tissue relative to the free drug” value was “increased concentration of drug in the plasma, spleen and lymphoid tissue”. As for `CCCCCCCC/C=C\CCCCCCCC(=O)OCC(COP(=O)(O)OC[C@@H]1CCC(n2ccc(N)nc2=O)O1)OC(=O)CCCCCCC/C=C\CCCCCCCC` (some centres unmarked) [DOP-ddc, Dioleoyl-phospathidyl-ddc], the “concentration of drug in the plasma, spleen and lymphoid tissue relative to the free drug” value is “increased concentration of drug in the plasma, spleen and lymphoid tissue”.
